The values that follow come from paper PMC7700685 (International Journal of Molecular Sciences, 2020).

“And” between values parts separate entries of the source, which are not always exact repeats. Equal entries are not always repeated. “Also recorded” adds a separate entry of the source. Where two headings read alike, the source gives them in different places.

In one data set the test system is U251MG cells. Briefly: MTT cell viability assay. The following applies: 72 h. Background: Tetrazolium dyes change colour on reduction, which living cells bring about.
In data set [1] the target is T1, MTH1 (Homo sapiens, UniProt P36639). Briefly: Competitive binding against [3H]TH287 in live U251MG cells. Details: endogenous in cells; host or cells: U251MG glioblastoma cells. How it is done: The final concentration of the radioligand in each assay was 4 nM. […] After the reaction was completed, the cells were washed once with ice-cold PBS and the bound radioactivity was counted and analyzed as described above. Nonspecific binding was determined from cells treated with 10 µM TH086. Raclopride, a well-reported selective antagonist for dopamine D₂ receptors, was also used to validate the assay.
The values for Bns and B0 were constrained using experimentally derived values.
Data from competitive radioligand binding studies were transformed to determine the pseudo-Hill coefficient, n’H, defined as:(4) logBs/B0−Bs=n′HlogI−n′HlogIC50
n’H, which is the negative of the Hill slope, was readily determined from the plot of logBs/B0−Bs versus logI .

For data set [2], the target named is T1, MTH1. The data set can be described thus: MTH1 enzymatic inhibition assay (PPiLight inorganic pyrophosphate bioluminescent assay). It is filed as biochemical. The conditions noted are these: substrate dGTP 100 uM, recombinant MTH1 0.5 nM; for IC50: read-out: IC50 inhibiting MTH1 hydrolase activity. How it is done:
(§1) The enzymatic hydrolysis of dGTP by purified human recombinant MTH1 to form dGMP and pyrophosphate was applied for screening purposes using a PPiLightTM inorganic pyrophosphate bioluminescent assay—according to published procedures. After shaking and color development, the plates were analyzed in a Victor 3 Microplate reader (PerkinElmer, Waltham, MA, USA) for luminescence. The inhibition assays were conducted using a series of dilutions of standard compounds and new MTH1 inhibitors. The IC50 values were determined by fitting a dose-response curve to the data points using nonlinear regression.

For data set [3] the following is noted: mouse; N-dealkylation of the aminomethyl substituent, major metabolite TH586; no reference given; cited from earlier work.
In data set [4] the target is T1, MTH1. The data set can be described thus: Competitive inhibition (kinetics) assay of MTH1 hydrolase. Type of data set: biochemical. As for the experimental part: as §1
The nature of the next data set: in vitro. The following applies: human.
Data set [5] in a line: MicroPET imaging of normal mice with [11C]TH287. It is filed as in vivo. As for the experimental part:
The Washington University Animal Studies Committee approved all procedures used for the mouse experiments described in the present study under ACS# 20,170,165 (approved on 9/1/2017). Overall care of the animals was consistent with The Guide for the Care and Use of Laboratory Animals from the National Research Council and the USDA Animal Care Resource Guide. Four male athymic nude mice ([…], 8 weeks old), purchased from Charles River Laboratories (Wilmington, MA, USA), were included for the preliminary microPET imaging evaluation of MTH1 in vivo. […] The imaging sessions were 1 h dynamic scans using the MicroPET® Focus 220 and Inveon scanners (Siemens Medical Solutions USA Molecular Imaging, Knoxville, TN, USA). Acquired list mode data were histogrammed into a 3D set of sinograms and binned to the following time frames: 5 × 60 s, 5 × 2 min, and 9 × 5 min. Sinogram data was then processed using a filter back-projection algorithm with attenuation and scatter corrections. […] The software Acquisition Sinogram Image PROcessing using IDL’s Virtual Machine^TM (ASIPro VM^TM) (Siemens Medical Solutions USA Molecular Imaging, Knoxville, TN, USA) was used to draw ROI and obtain the radioactivity uptake (nCi/c.c.) curve over the time course of the scan, and the uptake data were further normalized by the injected radioactivity dose to get %I.D./cc.

The conditions of data set [6]: human; N-dealkylation of the aminomethyl substituent, major metabolite TH586; no reference given; cited from earlier work.
In another data set the test system is beta-tubulin. The following applies: cited from earlier work.
In data set [7] the target is T1, MTH1. The following applies: 'it has been reported', no reference given; cited from earlier work.

Experimental for in vitro: MTT assays were used to test cell toxicity of compounds. […] After incubation with MTT for 4 h at 37 °C, the culture medium was aspirated and 200 µL DMSO was added to each well to dissolve the formazan crystals, then the absorbance was measured at 540 nm using a Victor 3 Microplate reader (PerkinElmer, Waltham, MA, USA).

`C[C@H](Oc1cc(-c2cnn(C3CCNCC3)c2)cnc1N)c1c(Cl)ccc(F)c1Cl` [(S)-crizotinib]: the entries for the “cell viability compared with vehicle control” value with U251MG cells (10 µM) and with U251MG cells (30 µM) were 92.95% and 0.14%, respectively.

By Ki is commonly meant a dissociation constant, usually derived from enzyme kinetics or from competition with a known ligand. In general, IC50 refers to the point on the concentration scale where inhibition reaches its midpoint. On to `CCN1CCC[C@H]1CNC(=O)c1c(O)c(Cl)cc(Cl)c1OC` [Raclopride], for which the “Ki (competitive binding)” value on MTH1 [1] (U251MG cells, 4 nM [3H]TH287, Cheng-Prusoff) was “No binding was detected”. Besides, the Ki at MTH1 [1] (read-out: Ki (competitive binding)) is more than 10000 nM. On MTH1 [2], the “IC50 inhibiting MTH1 hydrolase activity” value is “no inhibition” and the IC50 is more than 10000 nM.

One may read the viability as a per cent measure of how many cells are alive, often set against a control. Read a low viability as more harm to the cells. For the molecule `CNc1cc(-c2cccc(Cl)c2Cl)nc(N)n1` [TH287, 6-(2,3-Dichlorophenyl)-N4-methylpyrimidine-2,4-diamine], the “metabolism in liver microsomes” value in data set [3] and in data set [6] was “rapidly metabolized” in each case. The “Kmapp of MTH1” value on MTH1 [4] (2.5 nM TH287 present (Km 305 µM without)) is reported as 892 µM. Further, the inhibition constant (Ki) was ~1.3 nM and 1.3 nM at MTH1 [4] (MTH1 0.5 nM, dGTP 0 to 5000 uM, read-out: Ki from kinetics assays); 3.04 ± 0.14 nM on MTH1 [1]. Further, in the data set “in vitro”, the viability at 72 h, 30 µM came to 88.9%. In addition, the “pseudo-Hill coefficient n'H” value at MTH1 [1] (U251MG cells) is 0.88 and 0.88 ± 0.06. Also, the blood-brain barrier penetration entry in data set [5] (microPET) is recorded as “penetrates the blood-brain barrier of mice with a fast clearance”. In addition, in the data set with beta-tubulin, the “concentration inhibiting in vitro beta-tubulin polymerization” value was “higher than 30 µM”. Besides, at MTH1 [2], the concentration for half-maximal inhibition (IC50) came to 2.2 nM.

Regarding `Nc1cc(-c2cccc(Cl)c2Cl)nc(N)n1` [TH586], the IC50 on MTH1 [7] was 77 nM.

Turning to `Nc1nc(NC2CC2)cc(-c2cccc(Cl)c2Cl)n1` [TH588], in the data set with beta-tubulin, the “concentration inhibiting in vitro beta-tubulin polymerization” value is reported as “higher than 30 µM”.

`[11CH3]Nc1cc(-c2cccc(Cl)c2Cl)nc(N)n1` [[^11C]TH287]: the “uptake and clearance from brain, heart and kidney” value in data set [5] (~0.4 mCi via tail vein, 1 h dynamic scan) was “gets into the brain with rapid clearance from the brain, kidney, and heart; also recorded: high initial uptake and fast clearance; also recorded: rapid brain uptake and fast clearance”.
